We go through four compounds from patent US4388304A, “Angiotensin-II analogues with antagonizing effects, containing an ester group in position 8, and a process for the preparation thereof” (Richter Gedeon Vegyeszeti Gyar RT, priority 1980, dated 1983).

This assay has as its system narcotized male cats. Description: Antagonism of Hypertensin (angiotensin-II) infusion-induced blood pressure rise in narcotized male cats. The class given is in vivo, cat. As for the experimental part:
The antagonistic effects of the new compounds of the general formula (I) were investigated on narcotized male cats. After treating the animals with a ganglion blocking agent and bisecting the cervical vagus nerves on both side, an infusion of Hypertensin (CIBA) was given to the animals at a rate of 0.5 μg/kg/min. When the blood pressure of the animals reached a steady, increased level, the substance to be tested was administered either intravenously or subcutaneously in physiological saline solution or as an aqueous solution which also contained a carrier. The blood pressure drop was measured in mm Hg units, and the extent of decrease was expressed in percent related to the value before treatment. The statistical evaluation was performed on the basis of the blood pressure differences, by Student's single sample "t" test. The term "duration of effect" denotes the period elapsed until the observation of the last, still significant (p=5%) blood pressure difference.

The mark [1] stands for this setting: s.c., physiological saline, dose 100 μg/kg.
Setting [2] is: s.c., carboxymethyl cellulose (CMC), dose 50 μg/kg.
Where [3] appears, read: s.c., carboxymethyl cellulose (CMC), dose 100 μg/kg.
Where [4] appears, read: s.c., physiological saline, dose 50 μg/kg.
Setting [5] is: s.c., carboxymethyl cellulose (CMC), dose 200 μg/kg.

Take `CC[C@H](C)[C@H](NC(=O)[C@H](Cc1ccc(O)cc1)NC(=O)[C@@H](NC(=O)[C@H](CCCNC(=N)N)NC(=O)CNC)C(C)C)C(=O)N[C@@H](Cc1c[nH]cn1)C(=O)N1CCC[C@H]1C(=O)N[C@H](C(=O)OC)[C@@H](C)OC` [(Sar^1,Thr/Me/--OMe^8)-Ang-II, (sarcosine^1, threonine/Me/methyl ester^8)-angiotensin-II]: the “blood pressure decrease, percent related to the value before treatment” value (from here on “blood pressure decrease, percent related”) is on record as 12% (i.v., dose 20 μg/kg) and 27% under setting [1]. Further, the duration of effect is, setting by setting: (i.v., dose 20 μg/kg) 12 min; under setting [1], 45 min.
With `CC[C@H](C)[C@H](NC(=O)[C@H](Cc1ccc(O)cc1)NC(=O)[C@@H](NC(=O)[C@H](CCCNC(=N)N)NC(=O)CNC)C(C)C)C(=O)N[C@@H](Cc1c[nH]cn1)C(=O)N1CCC[C@H]1C(=O)N[C@@H](C)C(=O)OC` [(Sar^1,Ala--OMe^8)-Ang-II, (sarcosine^1, alanine methyl ester^8)-angiotensin-II], the “blood pressure decrease, percent related” value (i.v., dose 10 μg/kg) is recorded as 18%; the “blood pressure decrease, percent related” value (i.v., dose 20 μg/kg) is 29%; the “blood pressure decrease, percent related” value under setting [2] turned out to be 11%; the “blood pressure decrease, percent related” value under setting [3] is given as 18%; the “blood pressure decrease, percent related” value under setting [4] is on record as 20%; the “blood pressure decrease, percent related” value under setting [1] was 20%. For the same compound, the duration of effect worked out at 12 min (i.v., dose 10 μg/kg); 60 min (i.v., dose 20 μg/kg); 22 min under setting [2]; 22 min under setting [3]; 45 min under setting [4]; 45 min under setting [1].
In the case of `CC[C@H](C)[C@H](NC(=O)[C@H](Cc1ccc(O)cc1)NC(=O)[C@@H](NC(=O)[C@H](CCCNC(=N)N)NC(=O)CNC)C(C)C)C(=O)N[C@@H](Cc1c[nH]cn1)C(=O)N1CCC[C@H]1C(=O)N[C@H](C(=O)OC)[C@@H](C)CC` [(Sar^1,Ile--OMe^8)-Ang-II, (sarcosine^1, isoleucine methyl ester^8)angiotensin-II], the “blood pressure decrease, percent related” value is reported as 21% (i.v., dose 20 μg/kg); 20% (i.v., dose 40 μg/kg); 9% under setting [2]; 17% under setting [3]; 5% (s.c., gelatine, dose 100 μg/kg); 23% (s.c., gelatine, dose 200 μg/kg). Also, the “blood pressure decrease, percent related” value runs as follows: under setting [4], 8%; under setting [1], 25%. Besides, the duration of effect (i.v., dose 20 μg/kg) came to 25 min; the duration of effect (i.v., dose 40 μg/kg) came out at 38 min; the duration of effect result under setting [2] was “.phi”; the duration of effect under setting [3] came out at 200 min; the duration of effect (s.c., gelatine, dose 100 μg/kg) came out at 15 min; the duration of effect (s.c., gelatine, dose 200 μg/kg) came out at 300 min. For the same compound, the duration of effect reads like this: under setting [4], 180 min; under setting [1], 240 min.
For the compound `CNCC(=O)N[C@@H](CCCN=C(N)N)C(=O)N[C@H](C(=O)N[C@@H](Cc1ccc(O)cc1)C(=O)N[C@H](C(=O)N[C@@H](Cc1cnc[nH]1)C(=O)N1CCC[C@H]1C(=O)N[C@@H](C)C(=O)O)C(C)C)C(C)C` [Saralasin, (Sar^1, Ala^8)-angiotensin-II, reference compound], the “blood pressure decrease, percent related” value reads like this: (i.v., dose 10 μg/kg) 32%; under setting [3], 23%; under setting [5], 28%; (s.c., gelatine, dose 200 μg/kg) 23%; under setting [1], 29%; (s.c., physiological saline, dose 200 μg/kg) 24%. Further, the duration of effect by setting is: under setting [3], 45 min; under setting [5], 90 min; (s.c., gelatine, dose 200 μg/kg) “.phi”.
